Assays:
[1] = target: T1, interaction of gp96 with AIMP1 (Mus musculus, UniProt P08113); assay: Co-immunoprecipitation of gp96 with AIMP1 in RAW24.7 cells; type: cell-based; conditions: 10 μM, 24 h
T1 construct: endogenous in cells; host or cells: RAW24.7 (RAW264.7) cells
Experimental: (§1) FIGS. 1 to 9 represent suppression of cell surface gp96 by GPM1 reduces DC maturation and B220^+ population in gp96tm transgenic mice. (FIG. 1) Chemical structure of GPM1 (Formula 2) and negative control (NC1, Formula 16) used in this study. (FIG. 2) The dose-dependent effect of GPM1 or NC1 on the AIMP1-gp96 interaction using ELISA method as described. The indicated concentrations of the two compounds and biotin-conjugated murine gp96 were added to AIMP1 coated on the surface of microtiter wells, and gp96 bound to AIMP1 was detected with strepavidin-conjugated peroxidase. (FIG. 3) The binding of GPM1 to gp96 was examined by surface plasmon resonance (SPR). GPM1 at the indicated concentrations was injected to immobilized gp96 and the binding was measured using Biacore 3000. The response data were processed using data from a reference surface and buffer injections. Each concentration was tested in triplicate. (FIG. 4) RAW24.7 cells were treated with 10 μM GPM1 for 24 h. Cell lysates were immunoprecipitated with control IgG or anti-gp96 antibody and the immunoprecipitated proteins were immunoblotted with anti-KDELR1, antiAIMP1 and gp96 antibodies. WCL means whole cell lysate. […] TNFα secreted from BMDCs was quantified by ELISA. […]

bone marrow-derived DCs = assay: DC maturation assay (secreted TNFα); type: cell-based, mice; conditions: AIMP1−/− splenocytes pretreated 10 μM, 24 h; compared to NC1
Experimental: as §1

gp96 = gp96 (Homo sapiens, UniProt P14625); assay: Surface plasmon resonance, GPM1 binding to gp96 WT; parameters: made in house; host or cells: Escherichia coli BL21 (DE3)
Sequence of gp96 (P14625 22-803): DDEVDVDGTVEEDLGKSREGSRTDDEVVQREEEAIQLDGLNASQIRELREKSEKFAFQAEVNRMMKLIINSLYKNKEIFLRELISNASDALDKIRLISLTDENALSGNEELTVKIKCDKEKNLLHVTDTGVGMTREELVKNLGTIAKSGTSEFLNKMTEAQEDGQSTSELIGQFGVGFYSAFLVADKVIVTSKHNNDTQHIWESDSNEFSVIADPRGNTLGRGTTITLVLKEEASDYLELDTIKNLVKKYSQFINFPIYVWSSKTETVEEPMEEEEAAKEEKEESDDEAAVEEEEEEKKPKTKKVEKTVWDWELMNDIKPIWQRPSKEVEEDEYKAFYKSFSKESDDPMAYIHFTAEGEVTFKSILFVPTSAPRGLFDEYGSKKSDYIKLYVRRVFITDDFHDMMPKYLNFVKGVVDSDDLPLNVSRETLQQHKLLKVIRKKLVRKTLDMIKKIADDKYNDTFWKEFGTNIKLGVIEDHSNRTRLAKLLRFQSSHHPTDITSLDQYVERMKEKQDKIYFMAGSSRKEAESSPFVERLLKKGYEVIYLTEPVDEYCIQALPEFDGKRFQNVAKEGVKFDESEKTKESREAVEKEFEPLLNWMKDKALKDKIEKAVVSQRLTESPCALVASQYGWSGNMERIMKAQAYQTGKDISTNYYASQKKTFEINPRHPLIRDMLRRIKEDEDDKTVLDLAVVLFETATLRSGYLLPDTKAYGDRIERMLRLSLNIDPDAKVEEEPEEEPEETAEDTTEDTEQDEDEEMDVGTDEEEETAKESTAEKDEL
Experimental: Human gp96 was expressed as His tag fusion protein in Escherichia coli BL21 (DE3) and purified by nickel affinity chromatography. His-tagged human gp96 was immobilized onto CM5 sensor chips using standard amine coupling2. PBS was used as a running buffer. The carboxymethyl dextran surface within one side of the flow cell was activated with a 7-min injection of a 1:1 ratio of 0.4M EDC and 0.1M NHS. The protein was coupled to the surface with a 7-min injection of gp96 diluted in 10 mM sodium acetate, pH 3.7. Remaining activated groups were blocked with a 7-min injection of 1.0M ethanolamine, pH 8.5. GPM1 compound was dissolved directly in the PBS running buffer containing 1% DMSO and injected at a flow rate of 20 μl/min at 25° C. and the binding was determined by the change in resonance units (RU). The compound concentration varied from 10 nM to 25 μM and each concentration was tested at least three times. All of the bound complexes dissociated back to baseline within a reasonable time frame. Therefore, no regeneration was required. Sensorgram was processed by subtracting the binding response recorded from the control surface, followed by subtracting an average of the buffer blank injections from the reaction spot. To determine kinetic rate constants, all data sets were fit to a simple 1:1 binding with drifting baseline model using BIAevaluation program.

T1 sequence (P08113 22-802): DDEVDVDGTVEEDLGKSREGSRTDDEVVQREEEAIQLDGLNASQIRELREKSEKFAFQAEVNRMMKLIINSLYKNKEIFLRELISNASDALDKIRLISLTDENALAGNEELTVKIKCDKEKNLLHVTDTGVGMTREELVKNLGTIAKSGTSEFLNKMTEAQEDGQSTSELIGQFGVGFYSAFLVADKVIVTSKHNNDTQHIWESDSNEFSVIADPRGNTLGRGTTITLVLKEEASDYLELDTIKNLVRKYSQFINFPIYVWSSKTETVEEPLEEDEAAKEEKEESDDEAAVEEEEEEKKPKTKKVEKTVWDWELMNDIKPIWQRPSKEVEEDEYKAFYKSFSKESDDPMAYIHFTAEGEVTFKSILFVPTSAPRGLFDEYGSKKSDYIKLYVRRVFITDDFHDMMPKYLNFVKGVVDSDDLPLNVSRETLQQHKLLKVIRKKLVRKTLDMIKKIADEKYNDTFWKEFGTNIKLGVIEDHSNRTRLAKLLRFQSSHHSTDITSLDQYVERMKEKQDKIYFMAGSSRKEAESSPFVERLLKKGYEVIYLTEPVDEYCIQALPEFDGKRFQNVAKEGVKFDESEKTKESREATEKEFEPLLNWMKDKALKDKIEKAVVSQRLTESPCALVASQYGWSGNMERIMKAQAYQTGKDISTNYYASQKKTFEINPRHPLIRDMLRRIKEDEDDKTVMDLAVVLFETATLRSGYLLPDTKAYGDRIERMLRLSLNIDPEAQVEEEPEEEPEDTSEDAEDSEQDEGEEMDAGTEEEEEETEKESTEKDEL

COC(=O)[C@@H](Oc1nc(OC)cc(OC)n1)C(C)C [GPM1, (S)-methyl 2-(4,6-dimethoxypyrimidin-2-yloxy)-3-methylbutanoate]
interaction of gp96 with AIMP1 [1]: decreased | amount of secreted TNF-α (bone marrow-derived DCs): significantly reduced | Kd (gp96): 87.9 nM | koff (dissociation rate constant) (gp96): 0.0154 s⁻¹ | kon (gp96; read-out: Ka): 175000 M⁻¹ s⁻¹
